A word on the Kb: it is the equilibrium dissociation constant of an antagonist, usually derived from a functional assay. Low values mean a more potent antagonist, high ones a less potent antagonist.

In the assay the target is T1, histamine H3 receptor (Homo sapiens, UniProt Q9Y5N1).
T1 construct: expressed in transfected cells; host or cells: CHO K1 cells carrying pSwitch, transfected with pGeneH3 and induced with mifepristone; clone 3H3; membranes
The assay is described as follows: Histamine H3 functional antagonist assay ([35S]GTPγS SPA, membranes of CHO K1 cells expressing human H3). The format is biochemical. Conditions: functional antagonism of histamine (0.3 μM) stimulated [35S]GTPγS binding, membranes of CHO K1 cells with human histamine H3. The procedure:
A membrane preparation containing histamine H3 receptors may be prepared in accordance with the following procedures:
Ligated DNA was transformed into competent DH5α E. coli host bacterial cells and plated onto Luria Broth (LB) agar containing Zeocin™ (an antibiotic which allows the selection of cells expressing the sh ble gene which is present on pGene and pSwitch) at 50 μg ml^−1. Colonies containing the re-ligated plasmid were identified by restriction analysis. DNA for transfection into mammalian cells was prepared from 250 ml cultures of the host bacterium containing the pGeneH3 plasmid and isolated using a DNA preparation kit (Qiagen Midi-Prep) as per manufacturers guidelines (Qiagen).
CHO K1 cells previously transfected with the pSwitch regulatory plasmid (InVitrogen) were seeded at 2×10e6 cells per T75 flask in Complete Medium, containing Hams F12 (GIBCOBRL, Life Technologies) medium supplemented with 10% v/v dialysed foetal bovine serum, L-glutamine, and hygromycin (100 μg ml^−1), 24 hours prior to use. Plasmid DNA was transfected into the cells using Lipofectamine plus according to the manufacturers guidelines (InVitrogen). 48 hours post transfection cells were placed into complete medium supplemented with 500 μg ml^−1 Zeocin™.
10-14 days post selection 10 nM Mifepristone (InVitrogen), was added to the culture medium to induce the expression of the receptor. […] Approximately 1×10e7 cells were examined for receptor expression by staining with a rabbit polyclonal antibody, 4a, raised against the N-terminal domain of the histamine H3 receptor, incubated on ice for 60 minutes, followed by two washes in sorting medium. […] Following two further washes with Sorting Medium, cells were filtered through a 50 μm Filcon™ (BD Biosciences) and then analysed on a FACS Vantage SE Flow Cytometer fitted with an Automatic Cell Deposition Unit. […] Positively stained cells were sorted as single cells into 96-well plates, containing Complete Medium containing 500 μg ml^−1 Zeocin™ and allowed to expand before reanalysis for receptor expression via antibody and ligand binding studies.
All steps of the protocol are carried out at 4° C. and with pre-cooled reagents. The cell pellet is resuspended in 10 volumes of buffer A2 containing 50 mM N-2-hydroxyethylpiperazine-N′-2-ethanesulfonic acid (HEPES)(pH 7.40) supplemented with 10e−4M leupeptin (acetyl-leucyl-leucyl-arginal; Sigma L2884), 25 μg/ml bacitracin (Sigma B0125), 1 mM ethylenediamine tetra-acetic acid (EDTA), 1 mM phenylmethylsulfonyl fluoride (PMSF) and 2×10e−6M pepstain A (Sigma). The cells are then homogenised by 2×15 second bursts in a 1 litre glass Waring blender, followed by centrifugation at 500 g for 20 minutes. The supernatant is then spun at 48,000 g.for 30 minutes. The pellet is resuspended in 4 volumes of buffer A2 by vortexing for 5 seconds, followed by homogenisation in a Dounce homogeniser (10-15 strokes). At this point the preparation is aliquoted into polypropylene tubes and stored at −70° C. […]
The plate is then incubated on a shaker at room temperature for 30 minutes followed by centrifugation for 5 minutes at 1500 rpm. The plate is read between 3 and 6 hours after completion of centrifuge run in a Wallac Microbeta counter on a 1 minute normalised tritium count protocol. Data is analysed using a 4-parameter logistic equation. Basal activity used as minimum i.e. histamine not added to well.
For orientation: GTPγS is a poorly hydrolysed GTP analogue; its binding reports G protein activation.

Counter-ions that a name gives are not always drawn.

T1 sequence (Q9Y5N1 whole entry): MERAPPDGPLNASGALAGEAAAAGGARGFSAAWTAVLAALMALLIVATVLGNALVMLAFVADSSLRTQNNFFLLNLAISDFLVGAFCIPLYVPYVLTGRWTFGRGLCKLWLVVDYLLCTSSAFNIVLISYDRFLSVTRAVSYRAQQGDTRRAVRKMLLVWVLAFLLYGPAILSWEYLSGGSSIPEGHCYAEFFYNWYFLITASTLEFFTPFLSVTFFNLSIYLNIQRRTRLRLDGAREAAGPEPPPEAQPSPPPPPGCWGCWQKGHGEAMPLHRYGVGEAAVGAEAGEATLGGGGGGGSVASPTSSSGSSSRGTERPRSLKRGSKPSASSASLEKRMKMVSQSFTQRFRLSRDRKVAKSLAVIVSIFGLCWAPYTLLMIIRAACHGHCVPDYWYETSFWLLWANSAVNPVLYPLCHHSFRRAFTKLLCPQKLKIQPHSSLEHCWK

As to `CC(C)N1CCN(C(=O)C2CCN(c3ccc(C(=O)N4CCOCC4)cc3)CC2)CC1` [Example E30, 1-Isopropyl-4-{1-[4-(morpholino-carbonyl)-phenyl]-piperidine-4-carbonyl}-piperazine hydrochloride], the Kb is < 3.16 nM.

Take `CC(C)N1CCCN(C(=O)C2CCN(c3cc(F)c(C#N)cc3F)CC2)CC1` [Example E39, 1-Isopropyl-4-[1-(4-cyano-2,5-difluorophenyl)-piperidine-4-carbonyl]-[1,4]-diazepane]: the Kb is < 3.16 nM.

Consider `N#Cc1ccc(N2CCC(C(=O)N3CCN(C4CCC4)CC3)CC2)cc1C(F)(F)F` [Example E12, 1-Cyclobutyl-4-[1-(4-cyano-3-trifluoromethylphenyl)-piperidine-4-carbonyl]-piperazine], for which the Kb is < 3.16 nM.

With `O=C(C1CCN(c2ccc(C(F)(F)F)nc2)CC1)N1CCN(C2CCC2)CC1` [Example E97, 1-Cyclobutyl-4-[1-(6-trifluoromethylpyridin-3-yl)-piperidine-4-carbonyl]piperazine], the Kb is < 3.16 nM.

As to `O=C(C1CCN(c2ccc(C(F)(F)F)nc2)CC1)N1CCCN(C2CCC2)CC1` [Example E136, 1-Cyclobutyl-4-[1-(6-trifluoromethylpyridin-3-yl)-piperidine4-carbonyl]-[1,4]-diazepane], the Kb is < 3.16 nM.

Consider `CC(C)N1CCN(C(=O)C2CCN(c3ccc(C#N)nc3)CC2)C[C@@H]1C` [Example E78, (S)-1-Isopropyl-4-[1-(6-cyanopyridin-3-yl)-piperidine-4-carbonyl]-2-methyl piperazine], for which the Kb was < 3.16 nM.

Take `CC(C)N1CCCN(C(=O)C2CCN(c3ccc(C#N)c(F)c3)CC2)CC1` [Example E41, 1-Isopropyl-4-[1-(4-cyano-3-fluoro-phenyl)-piperidine4-carbonyl]-[1,4]-diazepane]: the antagonist equilibrium constant (Kb) was < 3.16 nM.

On to `N#Cc1ccc(N2CCC(C(=O)N3CCN(C4CCC4)CC3)CC2)nc1` [Example E14, 1-Cyclobutyl-4-[1-(5-cyanopyridin-2-yl)-piperidine-4-carbonyl]-piperazine], for which the Kb was < 3.16 nM.

In the case of `O=C(C1CCN(c2ncc(C(F)(F)F)cc2Cl)CC1)N1CCN(C2CCC2)CC1` [Example E17, 1-Cyclobutyl-4-[1-(3-chloro-5-trifluoromethylpyridin-2-yl)-piperidine-4-carbonyl]-piperazine], the antagonist dissociation constant (Kb) was < 3.16 nM.

Regarding `N#Cc1ccc(N2CCC(C(=O)N3CCCN(C4CCC4)CC3)CC2)nc1` [Example E37, 1-Cyclobutyl-4-[1-(5-cyanopyridin-2-yl)-piperidine4-carbonyl]-[1,4]-diazepane], the Kb was < 1 nM.

Take `CC(C)N1CCN(C(=O)C2CCN(c3ccc(C(=O)C4CC4)cc3)CC2)CC1` [Example E105, 1-Isopropyl-4-[1-(4-cyclopropylcarbonylphenyl)-piperidine4-carbonyl]-piperazine]: the Kb was < 3.16 nM.

Take `CC(C)N1CCCN(C(=O)C2CCN(c3ccc(C(F)(F)F)cc3)CC2)CC1` [Example E45, 1-Isopropyl-4-[1-(4-trifluoromethyl-phenyl)-piperidine-4-carbonyl]-[1,4]-diazepane]: the Kb is < 3.16 nM.

As to `CC(C)N1CCN(C(=O)C2CCN(c3ccc(C#N)nc3)CC2)CC1` [Example E129, 1-Isopropyl-4-[1-(6-cyano-pyridin-3-yl)-piperidine-4-carbonyl]-piperazine], the Kb was < 3.16 nM.

As for `N#Cc1ccc(N2CCC(C(=O)N3CCCN(C4CCC4)CC3)CC2)cn1` [Example E179, 1-Cyclobutyl-4-[1-(6-cyano-pyridin-3-yl)-piperidine-4-carbonyl]-[1,4]-diazepane], the Kb is < 3.16 nM.

With `CC(C)N1CCCN(C(=O)C2CCN(c3ccc(C#N)cc3Cl)CC2)CC1` [Example E64, 1-Isopropyl-4-[1-(4-cyano-2-chlorophenyl)-piperidine-4-carbonyl]-[1,4]-diazepane], the Kb was < 3.16 nM.

On to `N#Cc1ccc(N2CCC(C(=O)N3CCN(C4CCC4)CC3)CC2)c2ccccc12` [Example E13, 1-Cyclobutyl-4-[1-(4-cyano-naphthalen-1-yl)-piperidine-4-carbonyl]-piperazine], for which the Kb was < 3.16 nM.

For `O=C(C1CCN(c2cccc(C(F)(F)F)n2)CC1)N1CCN(C2CCC2)CC1` [Example E15, 1-Cyclobutyl-4-[1-(6-trifluoromethylpyridin-2-yl)-piperidine-4-carbonyl]-piperazine], the Kb was < 3.16 nM.

With `N#Cc1ccc(N2CCC(C(=O)N3CCCN(C4CCC4)CC3)CC2)cc1` [Example E36, 1-Cyclobutyl-4-[1-(4-cyanophenyl)-piperidine4-carbonyl]-[1,4]-diazepane], the Kb is < 1 nM.

Regarding `CC(=O)c1ccc(N2CCC(C(=O)N3CCCN(C(C)C)CC3)CC2)cc1` [Example E150, 1-Isopropyl-4-[1-(4-acetylphenyl)-piperidine-4-carbonyl]-[1,4]-diazepane], the antagonist dissociation constant (Kb) is < 1 nM.

On to `CCC(=O)c1ccc(N2CCC(C(=O)N3CCCN(C(C)C)CC3)CC2)cc1` [Example E151, 1-Isopropyl-4-[1-(4-propanoylphenyl)-piperidine-4-carbonyl]-[1,4]-diazepane], for which the Kb is < 1 nM.

`CC(C)N1CCN(C(=O)C2CCN(c3ccc(C#N)cn3)CC2)C[C@@H]1C` [Example E86, (S)-1-Isopropyl-4-[1-(5-cyanopyridin-2-yl)-piperidine4-carbonyl]-2-methyl piperazine]: the Kb was < 3.16 nM.

In the case of `Cc1ccc2cc(N3CCC(C(=O)N4CCN(C(C)C)CC4)CC3)ccc2n1` [Example E118, 1-Isopropyl-4-[1-(2-methyl-quinolin-6-yl)-piperidine-4-carbonyl]-piperazine], the Kb is < 3.16 nM.

Turning to `C[C@@H]1CN(C(=O)C2CCN(c3ccc(C#N)cc3)CC2)C[C@H](C)N1C1CCC1` [Example E33, (2R,6S)-1-Cyclobutyl-4-[1-(4-cyanophenyl)-piperidine-4-carbonyl]-2,6-dimethylpiperazine hydrochloride], the Kb was < 3.16 nM.

For the molecule `CC(C)N1CCCN(C(=O)C2CCN(c3ccc(C#N)cc3F)CC2)CC1` [Example E43, 1-Isopropyl-4-[1-(4-cyano-2-fluoro-phenyl)-piperidine-4-carbonyl]-[1,4]-diazepane], the Kb was < 3.16 nM.

Turning to `CCOC(=O)c1ccc(N2CCC(C(=O)N3CCN(C(C)C)CC3)CC2)cc1` [Example E8, 1-Isopropyl-4-[1-(4ethoxycarbonylphenyl)-piperidine-4-carbonyl]-piperazine], the Kb was < 3.16 nM.

Turning to `N#Cc1ccc(N2CCC(C(=O)N3CCCN(C4CCC4)CC3)CC2)cc1F` [Example E67, 1-Cyclobutyl-4-[1-(4-cyano-3-fluorophenyl)-piperidine4-carbonyl]-[1,4]-diazepane], the Kb is < 3.16 nM.

As to `CC(C)N1CCCN(C(=O)C2CCN(c3c(F)cc(C#N)cc3F)CC2)CC1` [Example E42, 1-Isopropyl-4-[1-(4-cyano-2,6-difluoro-phenyl)-piperidine-4-carbonyl]-[1,4]-diazepane], the Kb is < 3.16 nM.

Turning to `CC(C)N1CCCN(C(=O)C2CCN(c3ccc(C(F)(F)F)nn3)CC2)CC1` [Example E138, 1-Isopropyl-4-[1-(6-trifluoromethylpyridazin-3-yl)-piperidine-4-carbonyl]-[1,4]-diazepane], the antagonist dissociation constant (Kb) was < 3.16 nM.

For the molecule `O=C(C1CCN(c2ccc(C(F)(F)F)cn2)CC1)N1CCN(C2CCC2)CC1` [Example E16, 1-Cyclobutyl-4-[1-(5-trifluoromethylpyridin-2-yl)-piperidine-4-carbonyl]-piperazine], the Kb is < 3.16 nM.

As to `N#Cc1ccc(N2CCC(C(=O)N3CCCN(C4CCC4)CC3)CC2)c(Cl)c1` [Example E65, 1-Cyclobutyl-4-[1-(4-cyano-2-chlorophenyl)-piperidine-4-carbonyl]-[1,4]-diazepane], the Kb was < 3.16 nM.

Regarding `CC(C)N1CCCN(C(=O)C2CCN(c3ccc(C#N)c(F)c3F)CC2)CC1` [Example E63, 1-Isopropyl-4-[1-(4-cyano-2,3-difluorophenyl)-piperidine-4-carbonyl]-[1,4]-diazepane], the Kb is < 3.16 nM.
